# Patent US10004697B2, “In vivo sperm selection for treating male infertility” (M Pharmaceutical USA Inc., priority 2016, dated 2018)
# Test system: women
# Assay: Topical menthol applied to the vulva: increase of vaginal lubrication in women
# Assay type: in vivo, human
# Details: applied to the vulva (including the clitoris)
# Excerpt: Abnormal sperm quality in combination with inadequate vaginal lubrication can cause infertility. The menthol-stimulated vaginal plasma transudate 30 that is generated by use of the inventive method compensates for lubrication insufficiency that may be present in the female sexual partner of the infertile male. […] Since most infertility is a combination of female and male factors, the production of this vaginal transudate 30 can aid conception rates of both infertile males and females. […] Therefore the sperm, even if they somehow are able to be capacitated, have little or no protective and nourishing substrate in which they can swim up through the external os 24 and into the cervical canal 21. The odds of fertilization are thus extremely low.
structure (smiles),measurement,setting,value
CC1CCC(C(C)C)C(O)C1 (centres unmarked) [menthol],women in whom lubrication is increased,all women,80%
same,women in whom lubrication is increased,women over 35,90%
